Experimental data as given in patent US20230181535A1, “UBIQUITIN-LIGASE INHIBITORS FOR THE TREATMENT OF CANCER” (FUNDACIÓN PROFESOR NOVOA SANTOS, priority 2020, published 2023).
Where “and” joins values, the source holds several entries; their conditions need not be identical. Equal values may be shown once.

What was measured:
LoVo cells [1] = test: Western blotting of EMT markers, LoVo; type: cell-based; conditions: 48 h
Description: For western blot analysis, cells were treated with the indicated inhibitors for 48 h and the whole cell extracts were obtained as described previously. Twenty micrograms of lysates were resolved on a 10% polyacrilamide SDS-PAGE followed by western blot analysis performed as previously described. For immunofluorescence assays cells were grown for 24 h on glass coverslips and treated with the indicated inhibitors for 48 h. Cells were fixed with 4% PFA for 15 min, permeabilized with 0.5% […] and incubated with E-cadherin antibody for 2 h. Coverslips were incubated with fluorescein-tagged secondary antibody (Dakopatts, Sweden) for […]. Finally coverslips were mounted with ProLong Gold antifade reagent (LifeTech, UK) and images were taken in epifluorescence microscope (Olympus) using 40× objective. […] One set of SIM Synthetic Focus images were taken in the DAPI channel for Hoechst 33342 staining, and another set of images were taken in the FITC channel for anti-E-cadherin-AlexaFluor488 labeling and analysed by Structured Illumination Microscopy (SIM™) platform to image the cells and Vala's CyteSeer® Cell-Cell Junction Algorithm to quantify the degree of expression and intracellular location of E-cadherin Vala's CyteSeer® Software can also measure relative DNA content by analyzing Total Integrated Intensity (TII) of the Nuclear Image (Ni) on the Nuclear Mask (Nm). […]

LoVo cells [2] = test: BrdU proliferation assay, LoVo; type: cell-based; conditions: 48 h
Description: (§1) For BrdU assays, 1×10^4 of indicated cells were plated per well into a 96-well plate. After 24 h, cells were treated with the indicated inhibitors for 48 h. Three independent experiments were plated with six replicates per each condition. Cells were treated with […] BrdU for 2 h. BrdU incorporation into newly synthesized DNA was measured using a cell proliferation colorimetric immunoassay kit according to the manufacturer's instructions (Roche, Switzerland). Results are expressed as mean±S.D. Results are represented as percentage of positive cells (mean±S.D) of three independent experiments.

breast cancer MCF7 cell = test: BrdU proliferation assay, MCF7; type: cell-based, human; conditions: 48 h
Description: as §1

[3] = Hepatocyte stability, human; type: in vitro ADME; conditions: cryopreserved human hepatocytes in suspension, read-out: estimated half-life
Description: (§2) Test compound (final substrate concentration 3 μM; final DMSO concentration 0.25%) were pre-incubated at 37° C., prior to the addition of a suspension of cryopreserved hepatocytes (final cell density 0.5×10^6 viable cells/mL in Williams E media supplemented with 2 mM L glutamine and 25 mM HEPES) to initiate the reaction. The reactions were stopped with acetonitrile containing internal standard at the appropriate time points ([…]). The termination plates were centrifuged at 2500 rpm at 4° C. for 30 minute to precipitate the protein. Following the hepatocyte stability assays, the samples were utilized for metabolite profiling. Hepatocyte stability in mouse and human was performed by using the incubation of tested compound (3 μM) with cryopreserved hepatocytes in suspension. Samples were removed at 6 time points over the course of a 60 min experiment and remaining test compound at each time point was analysed by using LC-MS/MS. Then, data was analysed and an intrinsic clearance (CLint) with standard error and half-life (t½) reported.

[4] = system: mouse cryopreserved hepatocytes; test: Metabolite profiling in mouse cryopreserved hepatocytes; type: in vitro ADME; conditions: for Area percentage in sample, 0 minute control / Area percentage in sample, 10 minute sample / Area percentage in sample, 20 minute sample / Absolute area in sample, 0 minute control / Absolute area in sample, 10 minute sample / Absolute area in sample, 20 minute sample: mouse hepatocyte samples; for Absolute area in sample, 0 minute control / Absolute area in sample, 10 minute sample / Absolute area in sample, 20 minute sample: XIC area
Description: as §2
The samples from the hepatocyte stability assay were utilized for metabolite profiling. The 10 and 20 minute samples were compared to the 0 minute control sample to identified the metabolites formed. […] The areas and percentages reported for the parent and metabolites have been calculated using the XIC data; it has been assumed that each metabolite has the same ionization efficiency and that the sensitivity of the metabolite has not been affected by the biotransformation. […] For accuracy, a ppm error of less than 5 is desirable; when the response for a metabolite observed is low the ppm error maybe greater than 5. Where a metabolite has been referred to as a potential oxidation it can refer to a potential hydroxylation, epoxidation or oxide formation. Representative collision induced dissociation (CID) mass spectra were obtained for the metabolites found. Structural elucidation was then performed on the metabolite observed. The data are processed using Metabolynx XS (Waters Ltd). When the compound structure has been provided, the data is processed using mass defect filtering1 with the dealkylation tool2; if the structure is not provided then mass defect, filtering alone is used. […] The de-alkylation tool is used in addition to the mass defect filtering to take into account that when the molecule cleaves metabolically e.g. at an amine group, the mass defect may change. Following this initial processing, the data is compared to the control sample to determine whether a series of expected metabolites are observed. Finally, the same data set is processed, using 1 a.m.u. windows across the whole data acquisition range to look for non-predicted or unexpected metabolites. After the automated Metabolynx XS processing, the data are reviewed to confirm the validity of the detected metabolites and to ensure correct assignment of the metabolite observed. The elemental formula for the observed ion and compound is reported, along with the error in parts per million (ppm) for the measured ion compared to the theoretical mass of the ion. […] Therefore, structures are depicted in Markush format3 with the shaded area showing potential sites of modification. Hepatocyte stability, metabolic profiling and test compound analysis was performed by Cyprotex Discovery.

Hakai-MDCK cells = test: Soft agar-colony formation assay, Hakai-MDCK; type: cell-based; conditions: 21 days
Description: Soft agar-colony formation assay was performed on 12-well plates in triplicates at a density of 5×10^3 MDCK and MDCK-Hakai cells/well, or 12×10^3 HT29 cells/well. Cells were seeded in medium with 0.5% low-melting agarose over a layer with 0.75% low-melting agarose (Lonza Rockland, Me., USA). Cells were treated with the indicated inhibitors and DMSO was used as vehicle. Treatment was refreshed every 3 days and, after 21 days for MDCK and MDCK-Hakai cells or 28 days for HT29 cells, number of colonies were quantified. Quantification of five randomly-selected fields of each condition was photographed with a Nikon Eclipse-TI microscope (objective 4×). Experiments were conducted with three triplicates and were repeated three times. Data are represented as mean±SD.

[5] = system: bladder cancer 5637 cells; test: BrdU proliferation assay, 5637; type: cell-based, human; conditions: 48 h
Description: as §1

Row | Structure (SMILES) | EMT markers (western blotting) (LoVo cells [1]) | cell proliferation (BrdU) (LoVo cells [2]) | cell proliferation (BrdU) (breast cancer MCF7 cell) | half-life at 3 μM [3] | found in hepatocyte stability assay samples (Mouse) [4] | Area percentage in sample, 0 minute control [4] | Area percentage in sample, 10 minute sample [4] | Area percentage in sample, 20 minute sample [4] | Absolute area in sample, 0 minute control [4] | Absolute area in sample, 10 minute sample [4] | Absolute area in sample, 20 minute sample [4] | colony formation in soft agar (Hakai-MDCK cells) | cell proliferation (BrdU) [5] | polarity compared to parent (LCMS) ([4]; metabolite from incubating compound #1 with mouse hepatocytes)
1 | O=C(O)c1ccc(-n2nnnc2SCC(=O)c2ccc([N+](=O)[O-])cc2)cc1 [Hakin-1, 4-(5-[2-(4-nitrophenyl)-2-oxoethyl]thiol-1H-tetrazol-1-yl)benzoic acid] | confirmed these results | reduced cell proliferation | inhibited cell proliferation | 2.33 h | ✓ | 97.2% | 26.2% | 5.99% | 43574 | 14090 | 2877 | robust inhibition of colony formation | inhibited cell proliferation | –
2 | O=C(O)c1ccc(-n2nnnc2SCC(O)c2ccc([N+](=O)[O-])cc2)cc1 (stereo not drawn) [MKH1] | – | – | – | – | ✓ | 2.72% and 2.76% | 73.8% | 94% | 1235 | 39618 | 45169 | – | – | more polar than the parent
